Reference: a melting point compilation (Tetko et al.; mined from patent text by program, amines drawn as free bases though some values may be those of a salt)
Residues, ends and D or L forms follow the SMILES beside them. *: point of attachment. Cbz = O=C(OCc1ccccc1)*; Boc = CC(C)(C)OC(=O)*

Row | SMILES | melting point
1 | C[C@H](Cn1cnnn1)n1cnc2cc3c(=O)n(C4CC4)nnc3cc2c1=O | 245 to 246 °C
2 | COc1ccc(S(=O)(=O)N2CCc3cccc(-c4ccc(N(C)C)cc4)c32)cc1 | 178 to 180 °C
3 | CCOC(=O)Cc1nc2cc(C)ccc2o1 | 68 to 69 °C
4 | N#Cc1c(N2CCN(C(=O)c3ccco3)CC2)c2cccnc2n(Cc2ccccc2)c1=O | 206 °C
5 | O=Cc1cc(=O)n2ccsc2n1 | 184 to 186 °C
6 | NCC(O)c1cc(C(N)=O)c2[nH]ccc2c1 (centres undefined) | 88 to 90 °C
7 | COc1cc(OCc2ccccn2)ccc1/C=C/C(=O)CC(=O)/C=C/c1cc2ccccc2s1 | 188 °C
8 | O=C1N(Cc2noc(C(F)F)n2)c2ccccc2C12COc1cc3c(cc12)OCO3 (centres undefined) | 137 to 139 °C
9 | O=c1c2ccccc2cc(N2CCCCC2)c2ccccc12 | 103 to 105 °C
10 | COc1ccc(C(=O)Nc2cc(C)cc(C)c2)cc1N | 155 to 162 °C
11 | COc1ccccc1-n1c(=O)[nH]c2cccnc21 | 130 °C
12 | Cc1[nH]c2ncnc(Nc3cccc(F)c3)c2c1C | 245 to 255 °C
13 | COC(=O)Nc1ccc(OCc2nc3ccccc3s2)c(Cl)c1 | 133 to 135 °C
14 | CC(C)CNc1nc(-c2ccccc2)c(Br)n2ccnc12 | 138 °C
15 | Cc1[nH]c(-c2ccccc2)nc1C=O | 102 to 115 °C
16 | CC1(C)Nc2ccccc2-n2cnc(-c3noc(C4CC4)n3)c21 | 166 to 169 °C
17 | CC(=O)Nc1ccc(-c2ccc3c(c2)C(C)(C)OC(=O)N3)cc1F | 245 to 247 °C
18 | CCCCCc1ccc([C@H]2CC[C@H](c3ccc(C#N)cc3)CC2)cc1 | 80 °C
19 | O=C(CCc1ccc(I)cc1)Cn1ccnc1 | 124 to 125 °C
20 | O=C1C=CC(O)(c2nccs2)C=C1 | 138 to 139 °C
21 | CCCC(=O)c1cnc2c(OC)cccc2c1Nc1ccc(O)c(F)c1 | 266 to 268 °C
22 | CCOC(=O)c1ncn2c1[C@@H]1CCCN1C(=O)c1c(Cl)cccc1-2 | 182 to 184 °C
23 | COc1cc(NC(=O)Oc2ccc(N(CCCl)CCCl)cc2)cc(Nc2c3ccccc3nc3ccccc23)c1 | 179 to 180 °C
24 | CCOC(=O)CC(NC(=O)C(C)C)C(=O)c1ccco1 (centres undefined) | 65 to 67 °C
25 | CC1(C)CCc2c(N3CCSCC3)nc3sc4c(NCc5cccnc5)ncnc4c3c2C1 | 257 to 258 °C

Row | SMILES | melting point
26 | CCCc1c(OCc2cccc(C(=O)NCCCCc3cccnc3)c2)ccc(C(C)=O)c1O | 120 to 123 °C
27 | COC(=O)Cc1ccc(OCc2nc(-c3ccccc3)oc2C)cc1 | 74 to 75 °C
28 | CCNC(=O)c1ccc(-n2nnc(C(=O)NC3CC3)c2CS(=O)(=O)c2ccccc2)cc1 | 169 to 172 °C
29 | CCOCCn1c(NC2CCN(C(=O)c3cc(C(F)(F)F)cc(C(F)(F)F)c3)C(Cc3ccccc3)C2)nc2ccccc21 (centres undefined) | 178 °C
30 | CCOC(=O)c1cc2c(OCC3CO3)cc(C)cc2[nH]1 (centres undefined) | 173 to 175 °C
31 | O=C1c2cc(OCc3ccccc3)ccc2OCCC1Oc1ccccc1 (centres undefined) | 112 to 114 °C
32 | O=C1N(Cc2cnc(Cl)s2)c2ccccc2C12COc1cc3c(cc12)OCO3 (centres undefined) | 195 to 198 °C
33 | CCc1nc2c(N)nc3cccnc3c2n1NCCCNS(C)(=O)=O | 176 to 178 °C
34 | CC(C)(C)CC(C)(C)c1cc(-n2nc3ccccc3n2)c(O)c(C(C)(C)c2ccccc2)c1 | 109 to 111 °C
35 | CCc1ccc(-c2ccc3c(c2)C=C(C(=O)Nc2ccc(CN(C)C4CCOCC4)cc2)CCS3(=O)=O)cc1 | 257 to 260 °C
36 | CCNC(=O)c1c(Cl)cc(Cl)cc1[Si](C)(C)C | 101 to 103 °C
37 | NCCCCCCCCO | 48 to 53 °C
38 | CCOC(=O)C(CC(C)C)NC(=O)C(Cc1ccccc1)NC(=O)C(CCCCNC(=O)OCc1ccccc1)NC(=O)OC(C)(C)C (stereo not drawn) (Boc-Lys(Cbz)-Phe-Leu-OEt; configuration not given here) | 135 to 136 °C
39 | CC(C)N(CCC(CCN(C(C)C)C(C)C)(C(N)=O)c1ccc(-c2ccccc2)cc1)C(C)C | 110 to 111 °C
40 | COc1cc(C(=O)Cl)ccc1OCCCCl | 60 to 63 °C
41 | COC(=NC(=O)c1ccc(F)cc1)N1Cc2ccccc2-c2ccccc2C1 | 136 to 138 °C
42 | CCOC(=O)C1=C(C)NC(=O)N(C(N)=O)C1c1cccc([N+](=O)[O-])c1 (centres undefined) | 213 to 215 °C
43 | CCOC(=O)c1cc(-c2ccc(Cl)cc2)c(Cl)nc1N | 195 to 198 °C
44 | COn1c(C#N)c(Br)c(Br)c1-c1ccc(Cl)c(Cl)c1 | 145 to 150 °C
45 | Cc1cc(OCc2cccc(C(=O)O)c2)c([N+](=O)[O-])cc1S(=O)(=O)N(C)C | 220 to 221 °C
46 | CC=Cc1c(NC(=O)C(F)(F)F)ccc2c(=O)cc(C(=O)OCC)oc12 | 140 to 141 °C
47 | COC1OCC[C@@H]1NC(=O)[C@H](CC(C)C)NC(=O)[C@H](CC(C)C)NC(=O)c1ccc2c(c1)Nc1ccccc1O2 (some centres undefined) | 178 to 179 °C
48 | COP(=O)(CCC(C)(C)c1ccc(O)cc1)OC | 98 to 101 °C
49 | CC(C)=CCC(C(=O)O)C(=O)N(Nc1ccccc1)c1ccccc1 (centres undefined) | 166 °C
50 | CC(=O)OCC(=O)Nc1nc2c(Cl)cccc2s1 | 205 to 207 °C

Row | SMILES | melting point
51 | Cc1ncnc(-c2ccncc2)n1 | 99 to 102 °C
52 | Oc1ccc(-c2nc3cccc(O)c3[nH]2)cc1C12CC3CC(CC(C3)C1)C2 | 307 to 309 °C
53 | CN(C)C(=O)c1nc2cnc3ccccc3c2[nH]1 | 284 to 286 °C
54 | Cc1nc(-c2ccc(O)cc2)c(C(C)C)s1 | 165 °C
55 | O=C(O)COc1ccc2c(c1)Cc1sc(SCCC(c3ccccc3)c3ccccc3)nc1-2 | 135 to 137 °C
56 | CCOC(=O)C1=Cc2cc(Cl)ccc2NC1C(F)(F)F (centres undefined) | 133 to 134 °C
57 | CCCCCCCCCCCCCCCCCC(=O)OC1CC(C)(C)N(OC(=O)CCCCCCCCCCCCCCCCC)C(C)(C)C1 | 62 to 65 °C
58 | Nc1c(S(=O)(=O)c2ccc(O)cc2)c2nccnc2n2ccnc12 | > 300 °C
59 | CN(Cc1ccc(CCn2cnc3cc(-c4ccc(Cl)cc4)sc3c2=O)cc1)C(=O)OC(C)(C)C | 206 to 209 °C
60 | FC(F)(F)c1ccc(-c2ccnc(Nc3cnc4ccccc4c3)c2)cc1 | 207 to 208 °C
61 | COc1cc2cc(-c3cc(C)c(O)c(C)c3)[nH]c(=O)c2c(OC)c1CN1CCOCC1 | 158 to 161 °C
62 | O=C1NCCN1CCN1CCC(c2cn(-c3ccc(F)cc3)c3ccc(O)cc23)CC1 | 220 °C
63 | OCCN=Cc1ccc(Br)cc1 | 79 to 81 °C
64 | CCCn1c(=O)c2[nH]c(/C=C/c3ccc(OC)c(OC)c3)nc2n(CCC)c1=O | 196 °C
65 | CCCCn1c(=S)[nH]c2sccc2c1=O | 200 to 203 °C
66 | CC1Nc2ccc(-c3cc(F)cc(C#N)c3)cc2C(C)(C)O1 (centres undefined) | 163 to 164 °C
67 | C=c1oc(=O)c(=O)oc1=C | 44 °C
68 | O=C(NCCCCCCOC(=O)Oc1ccc([N+](=O)[O-])cc1)OC1CCN(C(=O)OCc2ccccc2)CC1 | 78 to 80 °C
69 | CCc1oc2ccccc2c1C(=O)c1cc(Br)c(OS(=O)(=O)c2ccc(C(=O)O)c(O)c2)c(Br)c1 | 173 °C
70 | Cc1cccc2c1nc(-c1ccccc1Cl)n2CC(C)O (centres undefined) | 164 to 165 °C
71 | CON=C(C)c1ccc(C(=O)Nc2ccc(C(C)(C)C)cc2)cc1 | 154 to 155 °C
72 | CCOC(=O)C(=O)C(C#N)Cc1ccccc1 (centres undefined) | 80 to 83 °C
73 | Cc1nn2c3c1c(=O)[nH]c(=O)n3CC=C2c1cc(Cl)ccc1Cl | 205 to 209 °C
74 | O=C(NC(=O)N1CCOCC1)c1cccc(-c2noc(-c3ccccc3F)n2)c1 | 190 to 194 °C
75 | COc1cccc2c1OC(C(N)=O)(c1ccncc1CC(=O)OCc1ccccc1)C2 (centres undefined) | 165 to 166 °C

Row | SMILES | melting point
76 | CCOC(=O)c1cnn(-c2ccc(O)c(C#N)c2)c1 | 233 to 234 °C
77 | Cn1nc(-c2c(F)cccc2Cl)nc1-c1ccc(Cc2ccc(Cl)c(Cl)c2)c(Cl)c1 | 179 to 185 °C
78 | NC(=O)c1nc(-c2cccc(O)c2)nc2c1[nH]c(=O)n2-c1ccccc1C(F)(F)F | 363 to 365 °C
79 | CC(C)(C)OC(=O)Nc1cc(-c2nnc(SCc3cccc(F)c3)o2)ccn1 | 237 to 238 °C
80 | O=c1n(F)nc(SC(Cl)Cl)n1-c1ccccc1 | 128 to 130 °C
81 | CC(C)=C1C(=O)N(c2ccc(O)cc2)C(=O)/C1=C(\C)c1c(C)n(C)c2ccccc12 | 231 to 233 °C
82 | CCOC(=O)C(C)Oc1ccc(Oc2cc3cc(Cl)ccc3nc2Cl)cc1 (centres undefined) | 56 °C
83 | CCN(C)C(=O)c1cc(-c2ccccc2)c2sccc2c1 | 93 °C
84 | O=C1Nc2ccc(Br)cc2C(c2ccccc2)=NC1O (centres undefined) | 190 to 192 °C
85 | CC1(C(=O)c2c[nH]c3ncc(-c4cccc(N5CCCC5)c4)nc23)CCCCC1 | 180 to 182 °C
86 | O=C(NCCN1CCC(Nc2nc3ccccc3n2Cc2ccc(F)cc2)CC1)c1cc2ccccc2[nH]1 | 232 °C
87 | CCOC(=O)C1=C(C)NC(C)=C([N+](=O)[O-])C1c1cccc(Cl)c1 (centres undefined) | 168 °C
88 | Cn1c(C(F)(F)F)ccc(-c2c(F)cc(Cl)c3oc(C(Br)Br)cc23)c1=O | 107 to 109 °C
89 | CC1OC(n2cc(F)c(NC(=O)c3ccoc3)nc2=O)C(O)C1O (centres undefined) | 173 to 174 °C
90 | CC#CN(C)c1nc2ccccc2s1 | 58 to 59 °C
91 | FC(F)(F)Sc1ccc(C=Cc2nc(CCl)cs2)cc1 | 133 to 134 °C
92 | Clc1ccc(CN2CCN=C2C(Cn2ccnc2)c2ccccc2)c(Cl)c1 (centres undefined) | 120 to 135 °C
93 | CCNS(=O)(=O)c1ccc(N)c(C(=O)N2CCN(C)CC2)c1 | 175 to 177 °C
94 | CCCNc1cccc(-c2ccnc3c(C(=O)c4cccs4)cnn23)c1 | 128 to 130 °C
95 | O=C1C(=Cc2c(Cl)cccc2Cl)CCc2ccccc21 | 73.8 to 75.6 °C
96 | CNc1nc(N2CCN(Cc3ccccc3)CC2)ncc1CCO | 119 to 120 °C
97 | COc1ccc2[nH]c3c(c2c1)C(C)CNC3=O (centres undefined) | 220 °C
98 | COc1ccc(-c2c(C(=O)c3ccccc3)c(C)nc3cc(OC)c(OC)cc23)cc1OC | 151 to 152 °C
99 | Cc1cccc(NC(=O)NC2C(=O)N(C)c3ccccc3N(C34CC5CC(CC(C5)C3)C4)C2=O)c1 (centres undefined) | 245 to 247 °C
